We go through 9 compounds from PMC12067741, “Inhibition of SOD1 trimerization is a novel drug target for ALS disease” (Translational Neurodegeneration, 2025).

Data set [1] can be described thus: BBB-PAMPA (parallel artificial membrane permeability assay). As to conditions: for recovery at 4 h, 10 µM: PAMPA. The source says: Next, we checked the basic in vitro ADME test including pharmacokinetics, plasma protein binding, CYP (Cytochrome P450) inhibition, metabolic stability and blood–brain barrier (BBB) permeability. […] We also plan to test safety panel assay in the future to obtain safety data for the drug.
Fig. S8. […]
(PAMPA measures passive passage across an artificial lipid membrane.)

The test system of the next data set is MT-SOD1 protein uptake. Description: SOD1 recombinant protein uptake into neuronal cells. As to conditions: SH-SY5Y cells, Dynasore 50 mM (so in the source), 6 hr. In kind it is cell-based. As for the experimental part:
For monitoring the localization of SOD1 recombinant proteins, SOD1-Halo proteins were added in neuronal cultures for 2 h and then the cells were incubated with the cell-permeable HaloTag-fluorscent ligands (diAcFAM) for 30 min. After incubation, cells were washed with serum-free culture medium three times and incubated in serum-containing culture medium in a CO2 incubator for 30 min to wash out unbound ligand. Fluorescent images of live cells were obtained using a commercial Tomocube HT-2H holotomography system (Daejeon, Republic of Korea).
We hypothesized that PRG-A-04, which targets trimeric SOD1, would inhibit SOD1 protein uptake. MT-SOD1 proteins were incubated with PRG-A-04 in vitro, and then cells were treated with the mixture. The MT-SOD1 protein uptake was reduced by incubation with PRG-A-04, as was SOD1 oligomerization (Fig. 3f, g). […] However, whether neuron-specific receptors on synapses, physiological conditions (neuronal cellular stress such as ion deficiency, environmental conditions such as hypoxia) and other ALS-related genetic causes (TDP-43, FUS, etc.) are essential for SOD1 uptake requires further study.
Fig. S3 SOD1 protein uptake into the cells through endocytosis. a, The uptake of SOD1 proteins was achieved by endocytosis. SH-SY5Y cells were treated with SOD1 recombinant proteins and endocytosis inhibitor (Dynasore; […]) for 6hr. After incubations, cells were harvested with RIPA and separated by SDS-PAGE. S.E: short exposure, L.E: long exposure. b, The recombinant MT-SOD1 protein is located intracellular space in neuron cells. SOD1-Halo proteins (3 μg/ml) were treated in neuron cells for 2 hr and incubated with HaloTag-fluorscent ligands (cellpermeable ligands; diAcFAM) for 30 min. After incubation, cells were washed with fresh culture medium three times and.
Incubate cells in complete culture medium at CO2 incubator for 30 min to wash unbound ligand. The fluorescence images of live cells were obtained using a commercial holotomography (HT-2H). White arrows indicate the intensity of SOD1. BF; Bright field, Scale bar; […].

The nature of data set [2]: Pharmacokinetics in mice (compound screening, IV/PO). The class given is in vivo, mouse. On the procedure: Fig. S1. Optimized inhibitor reduces SOD1 aggregation. a, Mutant SOD1s induced WT-SOD1 aggregation. Testing the selected chemicals to check the inhibitory effect on SOD1 aggregation .HEK293 cells were transfected with MT-SOD1 vectors (A4V, G 93 A) and treated with selected chemicals (5 mM). After incubation, transfected cells were harvested with TNNI buffer and fixed with 0.04% glutaraldehyde (Glu) for 30min. Samples were separated using SDS-PAGE. b-c, PRG-A-04 inhibited SOD1 inclusions in SK-N-SH cells. (b) Cells expressing MT-SOD1 vectors were treated with PRG-A-04 ([…]) for 24 hr. After incubation, cells were fixed with 4 % PFA and observed under the fluorescence microscope. (c) Cells with SOD1 inclusions (white arrows; strong intensity of SOD1) were counted by photomicrographs and the percentages were shown with standard deviation (SD). For cell counting, ten fluorescence images were randomly selected. Counting of cells were performed by three independent observers, who were blinded to transfection or chemical treatment group; two-tailed Student’s t-test. NS; Not significant, ****P < 0.001, d, PRG-A- […]
degradationin blood as well as gastro-intestinal tract.IV; intravenous injected group, PO; Per Os administrated group e, […]
show cytotoxicity. To know the toxic effect of PRG-A-04 , human normal fibroblast (f) and neuron cells (g) were incubated with PRG -A-04 for 48 hr dose dependently and measured the viability through MTT assay .“Con” means Dimethyl sulfoxide (DMSO) -treated control . The data are normalized to DMSO-treated cells. n=3 independent experiments; two-tailed Student’s t-test.NS; Not significant, *P < 0.05, **P < 0.01, ***P < 0.005.

The next data set deals with SOD1^G93A−Tg mice. On the set-up: method as in PMID 34912047. As to conditions: cited from earlier work.
The subject of another data set is WT-WT SOD1 interaction. On the set-up: method as in PMID 34912047. As to conditions: cited from earlier work.
The test system of another data set is ALS. As to conditions: cited from earlier work.
Data set [3] concerns the target misfolding-specific SOD1 antibody (Mis-SOD1 Ab). As to the kind of experiment: dot blot assay, band intensity quantified with Image J. As to conditions: normalised to Con, read off a plot.
The target of data set [4] is pan-SOD1 antibody (Pan-SOD1 Ab). The description is as above. As to conditions: normalised to Con, read off a plot.
The mark [5] stands for this setting: Con (no PRG-A-04), Mis-SOD1 signal over Pan-SOD1 signal.
Setting [6] is: PRG-A-04 treated, Mis-SOD1 signal over Pan-SOD1 signal.

Chain of WT-SOD1 (wild-type SOD1) expressed in transfected cells (from UniProt P00441) G93A (P00441 whole entry, looked up, stated change not applied): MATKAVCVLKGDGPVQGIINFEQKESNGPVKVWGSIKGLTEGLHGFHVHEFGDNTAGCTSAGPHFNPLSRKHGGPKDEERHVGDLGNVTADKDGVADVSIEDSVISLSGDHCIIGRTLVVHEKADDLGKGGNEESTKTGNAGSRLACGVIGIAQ
Chain of WT-SOD1 (wild-type SOD1) expressed in transfected cells (from UniProt P00441) G85R (P00441 whole entry, looked up, stated change not applied): as above

Compound `CC(C)NCC(O)COc1ccc(CC(N)=O)cc1` (stereo not shown) [Atenolol] came in with a recovery at 4 h, 10 µM in data set [1] of less than 109%.

Take `O=C(N/N=C/c1ccc(O)c(O)c1)c1cc2ccccc2cc1O` [Dynasore, reference compound]: in the data set with MT-SOD1 protein uptake, the “effect on SOD1 protein uptake” value is given as “inhibited”.

Turning to `COc1cc(C=CC(=O)OC2Cc3cc4ccc(=O)oc4cc3OC2(C)C)ccc1O` (stereo not shown) [PRG-A-01], the “bioavailability” value in data set [2] (in vivo) was “poorly bioavailable”. For the same compound, the “degradation in blood as well as gastro-intestinal tract” value in data set [2] (pharmacokinetics analysis, IV and PO groups (Fig. S1d)) was “rapid”. In the data set on SOD1^G93A−Tg mice, the “extension of lifespan of SOD1G93A-Tg mice” value is listed as “about 10 days”. For the same compound, in the data set with WT-WT SOD1 interaction, the “effect on WT-WT SOD1 interaction” value is reported as “did not show inhibitory effects”.

Take `CC(C)NCC(O)COc1cccc2ccccc12` (stereo not shown) [Propranolol]: in data set [1] (BBB-PAMPA, test concentration 10 µM, incubation 4 hour), the “Mean Pe” value came out at 76.6 nm/s. Further, the Permeability result in data set [1] (BBB-PAMPA, test concentration 10 µM, incubation 4 hour, class in words) is recorded as “High”. In data set [1], this compound gave a recovery at 4 h, 10 µM of 82.4%.

`CC1=NN(c2ccccc2)C(=O)C1` [radicava]: in the data set on ALS, the “efficacy on ALS progression” value is “efficacy in delaying ALS progression” and the “efficacy on survival rate” value is “no efficacy on survival rate”.

For the compound `Nc1nc2ccc(OC(F)(F)F)cc2s1` [riluzole], in the data set with ALS, the “efficacy on ALS progression” value is recorded as “efficacy in delaying ALS progression”.

Take Tofersen: in the data set with ALS (SOD1-ALS patients), the “effect on functional decline in clinical trials” value was “failed to improve functional decline”.

On to “WT-SOD1 (wild-type SOD1) expressed in transfected cells (from UniProt P00441) G85R”, for which the response amounted to 1 A.U in data set [3] (setting [5]); 1 A.U in data set [3] (Con (no PRG-A-04)); 0.42 A.U in data set [3] (setting [6]); 0.53 A.U in data set [3] (PRG-A-04 treated); 1 A.U in data set [4] (Con (no PRG-A-04)); 1.3 A.U in data set [4] (PRG-A-04 treated).

In the case of “WT-SOD1 (wild-type SOD1) expressed in transfected cells (from UniProt P00441) G93A”, the response in data set [3] (setting [5]) came out at 1 A.U; in data set [3] (Con (no PRG-A-04)) it was 1 A.U; in data set [3] (setting [6]), 0.25 A.U; in data set [3] (PRG-A-04 treated), 0.2 A.U; in data set [4] (Con (no PRG-A-04)) it was 1 A.U; in data set [4] (PRG-A-04 treated), 0.77 A.U.
